Results taken from patent US20030061759A1, “Method for expelling harmful insects by volatilization of a chemical” (FUMAKILLA LIMITED, priority 2000, published 2003).
Where two headings read alike, the source gives them in different places.

Tests used:
[1] = system: female adult stegomyia mosquitoes (Aedes albopictus); assay: Comparative debugging efficaciousness tests: bloodsucking prevention on rats, liquid type electric mosquito repellent utensil; format: in vivo; conditions: for efficacy of preventing mosquitoes from bloodsucking rats compared with transfluthrin: comparison in words; for Potency Ratio (Etoc 100), of IC50 Value / Potency Ratio (Etoc 100), of IC90 Value: relative to d,d-T80-prallethrin (Etoc) = 100; for IC50 Value (amount of volatilization at a 50% rate of bloodsucking prevention) / IC90 Value (amount of volatilization at a 90% rate of bloodsucking prevention): 13.2 m^2 room, 32° C., 30 min pre-fumigation, 2 hours after release, rats
Experimental: First, debugging efficaciousness tests were performed. For the criterion of judgment to compare degrees of efficaciousness, the effect of bloodsucking by mosquitoes of rats was adopted. Based on this, the following efficaciousness tests were carried out.
Comparative Debugging Efficaciousness Tests
Sample chemicals that were used were as follows: d,d-T80-prallethrin, transfluthrin, d1,d-T80-allethrin, d-T80-furamethrin, terallethrin and empenthrin; and pyrethroid technical products (sample chemicals) A, B, C, D, E, F, G and H.
Sample insects that were used were as follows: female adult stegomyia mosquitoes (Aedes albopictus) of Fumakilla (spelled phonetically) series 6th to 9th after emergence.
Sample chemical volatilizing form: A liquid type electric mosquito repellent utensil, a liquid agent (referred to below as “sample liquid”), obtained by diluting each of the sample chemicals with a solvent in a varying concentration, was allowed to volatilize.
Method used for tests: A test was conducted in two 8 straw mat (13.2 m^2) rooms, one as a treatment zone and the other as a non-treatment zone, both in a no-wind state and at a constant room temperature of 32° C.
In the treatment zone, three cages each with a rat confined therein were placed equidistantly spaced apart (about 20 cm) in the center of the test room. The mosquito repellent utensil placed on the floor surface of the center of the test room was preliminarily electrically energized for operation, and to thermally volatilize each of the sample liquids and fumigate the room therewith for a period of 30 minutes, and then about 100 (one hundred) of sample mosquitoes were released into the test room. After two hours following the release of the mosquitoes, all these sample mosquitoes were knocked-down by using a mosquito repellent mat, and the number of the mosquitoes which had bloodsucking was counted to find the proportion of bloodsucking.
In the non-treatment zone, also, after the 2 hours of bloodsucking, the proportion of bloodsucking was found.
A rate of bloodsucking prevention was derived from the proportions of bloodsucking in the treatment and non-treatment rooms as expressed by the following equation:
Rate of bloodsucking prevention =[(Total bloodsucking proportion in the non-treatment zone−Total bloodsucking proportion in the treatment zone)÷Total bloodsucking proportion in the non-treatment zone]×100
Also, on the basis of these amounts of volatilization and rates of bloodsucking prevention, an amount of volatilization at a 50% rate of bloodsucking prevention (IC50 value) and an amount of volatilization at a 90% rate of bloodsucking prevention (IC90 value) are found and shown in Table 1 below.

[2] = Comparative vapor pressure tests by gas chromatography; format: physicochemical; conditions: for vapor pressure compared with transfluthrin and d,d-T80-prallethrin: from GC retention times
Experimental: 2. Comparative Vapor Pressure Tests
Next, by using gas chromatography, the various chemicals including sample chemicals A, B and C screened out by the foregoing comparative debugging efficaciousness tests were compared with d,d-T80-prallethrin (Etoc) as regards to their vapor pressures.
The gas chromatography test included as its temperature conditions an initial temperature of 60° C., and a temperature rise of 5° C. per minute up to a maximum temperature of 250° C., which was held for a period of 5 minutes, whereupon the process ended.
The filler used was made up of methyl silicon polymer, which is non-polar.
It should also be noted that as an internal standard substance use was made of sebacic acid-n-butyl and which was added to confirm that there was no deviation in retention time from one test to another.
Retention times for the various chemicals are listed in Table 2 in the order of shorter to longer.

[3] = system: female adult common house mosquitoes (Culex pipiens pallens); assay: Example 1: spontaneous volatilization efficaciousness test in 33 m^3 room (knockdown, KT50); format: in vivo; conditions: for potency and retention of potency compared with transfluthrin: comparison in words
Text: Using sample chemicals A, B and C screened out by the preliminary tests, the efficaciousness of each of them when allowed to volatilize spontaneously was compared with that of transfluthrin when allowed to volatilize spontaneously.
Sample Preparations (Chemicals and Their Carriers According to the Present Invention):
(§1) A non-woven polypropylene fabric (made by Idemitsu Petroleum Chemicals Co., Ltd., product name RW2100, density 100 grams/m^2) of 50 cm×40 cm was coated with a hexane solution of 100 milliliter containing 1% (W/V) sample chemicals A, B, C and left to dry for 24 hours (effective amount of chemical: 1000 milligrams).
Comparative Preparation (Chemical and its Carrier):
as §1, with “of transfluthrin” for “sample chemicals A, B, C”
Testing Method: Efficaciousness Tests in an 8 Straw Mat room with a volume of 33 m^3
In the center of the test room with a volume of 33 m^3 (3.65 m×3.65 m×2.5 m high), each chemical carrier as prepared as above was placed as hung on a hook suspended in the center of the room to let the corresponding chemical volatilize spontaneously for a period of 3 hours. Thereafter, a triangular net casing (20 cm×20 cm×16.4 cm high) of 16 mesh nylon net containing 10 (ten) female adult common house mosquitoes (Culex pipiens pallens) was placed as hung in an area at each of the four corners (spaced from the wall surfaces at a distance of 90 cm) at a height of 150 cm from the room floor and was exposed to the chemical atmosphere.
A test was also conducted likewise for the comparative carrier.
After the tests ended, the samples chemicals were let to volatilize spontaneously in the room having a constant temperature of 30° C. The same test was repeated at given intervals and efficaciousness was then examined each time.

[4] = 60° C. initial, 5° C. per minute up to 250° C., non-polar methyl silicon polymer filler

Cc1c(F)c(F)c(COC(=O)C2C(C=C(F)Cl)C2(C)C)c(F)c1F (centres unmarked) [Sample Chemical C, 2,3,5,6-tetrafluoro-4-methylbenzyl 3-(2-chloro-2-fluorovinyl)-2,2-dimethylcyclopropanecarboxylate]
efficacy of preventing mosquitoes from bloodsucking rats compared with transfluthrin [1]: more efficacious than transfluthrin
Potency Ratio (Etoc 100), of IC50 Value [1]: 130.6
Potency Ratio (Etoc 100), of IC90 Value [1]: 348.2
Retention Time (gas chromatography, as comparison of vapor pressure) [2, 4]: 24.5 min
vapor pressure compared with transfluthrin and d,d-T80-prallethrin [2]: lower than transfluthrin, but higher than d,d-T80-prallethrin
potency and retention of potency compared with transfluthrin [3]: higher in potency and also longer in retention time than transfluthrin
KT50 ([3]; elapsed time 0 hr): 5.53 min
KT50 ([3]; elapsed time 168 hr): 7.53 min
KT50 ([3]; elapsed time 336 hr): 7.55 min
KT50 ([3]; elapsed time 504 hr): 6.95 min
KT50 ([3]; elapsed time 672 hr): 7.98 min
KT50 ([3]; elapsed time 864 hr): 12.60 min
KT50 ([3]; elapsed time 1056 hr): 10.70 min
KT50 ([3]; elapsed time 1200 hr): 11.50 min
KT50 ([3]; elapsed time 1344 hr): 12.60 min
KT50 ([3]; elapsed time 1536 hr): 15.90 min
KT50 ([3]; elapsed time 1680 hr): 20.70 min
KT50 ([3]; elapsed time 1848 hr): 25.90 min
KT50 ([3]; elapsed time 2016 hr): 27.80 min
KT50 ([3]; elapsed time 2208 hr): 30.60 min

C#CC(OC(=O)C1C(C=C(F)Cl)C1(C)C)C(C)=CCC (centres unmarked) [Sample Chemical H, 1-ethynyl-2-methyl-2-pentenyl 3-(2-chloro-2-fluorovinyl)-2,2-dimethylcyclopropanecarboxylate]
Potency Ratio (Etoc 100), of IC50 Value [1]: 2.0
Potency Ratio (Etoc 100), of IC90 Value [1]: 3.1

CC=CC1C(C(=O)OCc2c(F)c(F)c(COC)c(F)c2F)C1(C)C (centres unmarked) [Sample Chemical A, 2,3,5,6-tetrafluoro-4-methoxymethylbenzyl 3-(1-propenyl)-2,2-dimethylcyclopropanecarboxylate]
efficacy of preventing mosquitoes from bloodsucking rats compared with transfluthrin [1]: more efficacious than transfluthrin
Potency Ratio (Etoc 100), of IC50 Value [1]: 197.1
Potency Ratio (Etoc 100), of IC90 Value [1]: 496.8
Retention Time (gas chromatography, as comparison of vapor pressure) [2, 4]: 25.1 min
vapor pressure compared with transfluthrin and d,d-T80-prallethrin [2]: lower than transfluthrin, but higher than d,d-T80-prallethrin
potency and retention of potency compared with transfluthrin [3]: higher in potency and also longer in retention time than transfluthrin
KT50 ([3]; elapsed time 0 hr): 6.53 min
KT50 ([3]; elapsed time 168 hr): 4.52 min
KT50 ([3]; elapsed time 336 hr): 5.38 min
KT50 ([3]; elapsed time 504 hr): 6.28 min
KT50 ([3]; elapsed time 672 hr): 7.25 min
KT50 ([3]; elapsed time 864 hr): 9.60 min
KT50 ([3]; elapsed time 1056 hr): 8.50 min
KT50 ([3]; elapsed time 1200 hr): 8.80 min
KT50 ([3]; elapsed time 1344 hr): 9.70 min
KT50 ([3]; elapsed time 1536 hr): 8.97 min
KT50 ([3]; elapsed time 1680 hr): 11.60 min
KT50 ([3]; elapsed time 1848 hr): 12.50 min
KT50 ([3]; elapsed time 2016 hr): 11.50 min
KT50 ([3]; elapsed time 2208 hr): 13.60 min
KT50 ([3]; elapsed time 2352 hr): 16.80 min
KT50 ([3]; elapsed time 2520 hr): 17.20 min
KT50 ([3]; elapsed time 2688 hr): 18.60 min
KT50 ([3]; elapsed time 2856 hr): 17.70 min
KT50 ([3]; elapsed time 3024 hr): 24.60 min
KT50 ([3]; elapsed time 3192 hr): 27.80 min
KT50 ([3]; elapsed time 3360 hr): 31.60 min

COc1c(F)c(F)c(COC(=O)C2C(C=C(Cl)Cl)C2(C)C)c(F)c1F (centres unmarked) [Sample Chemical D, 2,3,5,6-tetrafluoro-4-methoxybenzyl 3-(2,2-dichlorovinyl)-2,2-dimethylcyclopropanecarboxylate]
Potency Ratio (Etoc 100), of IC50 Value [1]: 17.5
Potency Ratio (Etoc 100), of IC90 Value [1]: 21.3

CC(C)=CC1C(C(=O)OCc2cccc(Oc3ccccc3)c2)C1(C)C (centres unmarked) [Phenothorin, reference compound]
Retention Time (gas chromatography, as comparison of vapor pressure) [2]: 33.7 min

CC=CC1C(C(=O)OCc2c(F)c(F)c(C)c(F)c2F)C1(C)C (centres unmarked) [Sample Chemical G, 2,3,5,6-tetrafluoro-4-methylbenzyl 3-(1-propenyl)-2,2-dimethylcyclopropanecarboxylate]
Potency Ratio (Etoc 100), of IC50 Value [1]: 2.8
Potency Ratio (Etoc 100), of IC90 Value [1]: 4.3

C#CCc1ccc(COC(=O)C2C(C=C(C)C)C2(C)C)o1 (stereo not drawn) [d-T80-furamethrin]
IC50 Value (amount of volatilization at a 50% rate of bloodsucking prevention) [1]: 0.1170 mg/h
IC90 Value (amount of volatilization at a 90% rate of bloodsucking prevention) [1]: 0.270 mg/h
efficacy of preventing mosquitoes from bloodsucking rats compared with transfluthrin [1]: lower effects of preventing mosquitoes from bloodsucking rats than transfluthrin
Potency Ratio (Etoc 100), of IC50 Value [1]: 6.9
Potency Ratio (Etoc 100), of IC90 Value [1]: 14.4

CC(C)=CC1C(C(=O)OCc2c(F)c(F)c(C)c(F)c2F)C1(C)C (centres unmarked) [Sample Chemical F, 2,3,5,6-tetrafluoro-4-methylbenzyl 3-(2-methyl-1-propenyl)-2,2-dimethylcyclopropanecarboxylate]
Potency Ratio (Etoc 100), of IC50 Value [1]: 6.6
Potency Ratio (Etoc 100), of IC90 Value [1]: 5.4

COCc1c(F)c(F)c(COC(=O)C2C(C=C(C)C)C2(C)C)c(F)c1F (centres unmarked) [Sample Chemical E, 2,3,5,6-tetrafluoro-4-methoxymethylbenzyl 3-(2-methyl-1-propenyl)-2,2-dimethylcyclopropanecarboxylate]
Potency Ratio (Etoc 100), of IC50 Value [1]: 13.7
Potency Ratio (Etoc 100), of IC90 Value [1]: 22.4

C#CC(OC(=O)C1C(C=C(C)C)C1(C)C)/C(C)=C/CC (centres unmarked) [Empenthrin]
efficacy of preventing mosquitoes from bloodsucking rats compared with transfluthrin [1]: lower effects of preventing mosquitoes from bloodsucking rats than transfluthrin
Potency Ratio (Etoc 100), of IC50 Value [1]: 0.7
Potency Ratio (Etoc 100), of IC90 Value [1]: 1.2
Retention Time (gas chromatography, as comparison of vapor pressure) [2, 4]: 20.1 min

C=CCC1=C(C)C(OC(=O)C2C(C=C(C)C)C2(C)C)CC1=O (stereo not drawn) [d1,d-T80-allethrin]
efficacy of preventing mosquitoes from bloodsucking rats compared with transfluthrin [1]: lower effects of preventing mosquitoes from bloodsucking rats than transfluthrin
Potency Ratio (Etoc 100), of IC50 Value [1]: 12.9
Potency Ratio (Etoc 100), of IC90 Value [1]: 9.5
Retention Time (gas chromatography, as comparison of vapor pressure) [2]: 26.6 min

C#CCC1=C(C)C(OC(=O)C2C(C=C(C)C)C2(C)C)CC1=O (stereo not drawn) [d,d-T80-prallethrin]
IC50 Value (amount of volatilization at a 50% rate of bloodsucking prevention) [1]: 0.0081 mg/h
IC90 Value (amount of volatilization at a 90% rate of bloodsucking prevention) [1]: 0.039 mg/h
efficacy of preventing mosquitoes from bloodsucking rats compared with transfluthrin [1]: more efficacious than transfluthrin
Potency Ratio (Etoc 100), of IC50 Value [1]: 100.0
Potency Ratio (Etoc 100), of IC90 Value [1]: 100.0
Retention Time (gas chromatography, as comparison of vapor pressure) [2, 4]: 27.1 min

C=CCC1=C(C)C(OC(=O)C2C(C)(C)C2(C)C)CC1=O (centres unmarked) [Terallethrin]
IC50 Value (amount of volatilization at a 50% rate of bloodsucking prevention) [1]: 0.3650 mg/h
IC90 Value (amount of volatilization at a 90% rate of bloodsucking prevention) [1]: 1.028 mg/h
efficacy of preventing mosquitoes from bloodsucking rats compared with transfluthrin [1]: lower effects of preventing mosquitoes from bloodsucking rats than transfluthrin
Potency Ratio (Etoc 100), of IC50 Value [1]: 2.2
Potency Ratio (Etoc 100), of IC90 Value [1]: 3.8
Retention Time (gas chromatography, as comparison of vapor pressure) [2]: 23.3 min
